Data reported in patent publication EP2948433B1, “ATGLISTATIN AS LIPASE INHIBITOR” (Technische Universität Graz, priority 2013, dated 2014).
Marks after values point to notes of the source that are not given here.

Key:
murine HSL = molecular target: T1, murine HSL (Mus musculus, UniProt P54310); experiment: HSL activity, overexpressed in COS-7 lysates, triolein substrate; type: biochemical; settings: Fig. 2C
T1 construct: His-tag (vector pcDNA4/HisMax); made in house; host or cells: COS-7 cells, transient transfection, 1,000 x g lysate
T1 sequence (P54310 1-759): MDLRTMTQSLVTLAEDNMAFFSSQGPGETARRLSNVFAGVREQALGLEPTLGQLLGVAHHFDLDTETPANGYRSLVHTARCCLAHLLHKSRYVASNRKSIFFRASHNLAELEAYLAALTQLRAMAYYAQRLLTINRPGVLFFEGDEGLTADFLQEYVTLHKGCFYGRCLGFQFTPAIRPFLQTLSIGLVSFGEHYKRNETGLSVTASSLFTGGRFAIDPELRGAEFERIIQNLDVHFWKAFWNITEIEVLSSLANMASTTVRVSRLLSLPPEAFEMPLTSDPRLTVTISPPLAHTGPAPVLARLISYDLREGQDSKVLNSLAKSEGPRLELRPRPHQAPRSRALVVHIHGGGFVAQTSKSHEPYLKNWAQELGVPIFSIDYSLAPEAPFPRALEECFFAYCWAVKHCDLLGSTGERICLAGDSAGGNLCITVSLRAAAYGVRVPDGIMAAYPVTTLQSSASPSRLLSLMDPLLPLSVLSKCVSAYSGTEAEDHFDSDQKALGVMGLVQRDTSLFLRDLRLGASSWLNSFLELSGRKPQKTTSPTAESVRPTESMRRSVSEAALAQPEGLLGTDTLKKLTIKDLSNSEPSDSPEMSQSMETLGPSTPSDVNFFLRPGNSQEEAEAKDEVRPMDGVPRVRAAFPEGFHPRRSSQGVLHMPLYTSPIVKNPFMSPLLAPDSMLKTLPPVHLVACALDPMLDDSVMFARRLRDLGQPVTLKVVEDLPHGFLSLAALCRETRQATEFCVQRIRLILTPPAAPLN
Procedure: • Figure 1. Structure of compounds 1 to 3 (reference) and compound 4 (atglistatin) and effect on ATGL activity. For determination of lipase activity, lysates of E. coli overexpressing recombinant strep-tagged ATGL and CGI-58 were incubated with a substrate containing radiolabeled [9,10-3H(N)]-triolein. Subsequently, FA were extracted and quantified by liquid scintillation counting. Lysates of cells expressing empty vector were set as blank. Inhibitors were solubilized in DMSO and added at the indicated concentrations. DMSO alone was used as negative control. (A) Structure and IC50 values of compounds 1-4. (B) Dose-dependent inhibition of ATGL in the presence of compound 3 and 4. […] (C) Lineweaver-Burk plots for kinetic analysis of ATGL inhibition. Experiments were performed at varying concentrations of substrate (0.05 - 3 mM) in presence and absence of compound 4 (Atglistatin). […] Lipase activity of ATGL, HSL, lipoprotein lipase, and pancreatic lipase was determined using triolein as substrate. MGL activity was detected in the presence of rac-(1,3)-monooleoylglycerol as substrate. […] The release of FA (A) and glycerol (B) in the media was determined using commercial kits. […] At the indicated timepoints blood was taken retroorbitally and plasma parameters were measured using commercial kits. […] 8 h after gavage blood was taken retroorbitally and plasma parameters were measured using commercial kits. […]

[1] = Inhibition of lipolysis in vivo, oral gavage in fasted mice, plasma parameters; set-up: species or system C57BI/6J mice
Procedure: • Figure 1. Structure of compounds 1 to 3 (reference) and compound 4 (atglistatin) and effect on ATGL activity. For determination of lipase activity, lysates of E. coli overexpressing recombinant strep-tagged ATGL and CGI-58 were incubated with a substrate containing radiolabeled [9,10-3H(N)]-triolein. Subsequently, FA were extracted and quantified by liquid scintillation counting. Lysates of cells expressing empty vector were set as blank. Inhibitors were solubilized in DMSO and added at the indicated concentrations. DMSO alone was used as negative control. (A) Structure and IC50 values of compounds 1-4. (B) Dose-dependent inhibition of ATGL in the presence of compound 3 and 4. […] (C) Lineweaver-Burk plots for kinetic analysis of ATGL inhibition. Experiments were performed at varying concentrations of substrate (0.05 - 3 mM) in presence and absence of compound 4 (Atglistatin). […] Data are presented as mean +/-S.D. of triplicate determinations. Data for compound 4 are representative for at least three independent experiments. • Figure 2. Selectivity of Atglistatin. Lipase activity of ATGL, HSL, lipoprotein lipase, and pancreatic lipase was determined using triolein as substrate. MGL activity was detected in the presence of rac-(1,3)-monooleoylglycerol as substrate. Inhibitors were solubilized in DMSO and added at the indicated concentrations. DMSO alone was used as negative control. (A) Dose-dependent inhibition of TG hydrolase activity in WAT lysates obtained from wild-type and ATGL-ko mice. (B) Inhibition of TG hydrolase activity in wild-type WAT lysates by Atglistatin (40 µM) and by the HSL inhibitor Hi 76-0079 (20 µM). (C) Effect of Atglistatin on murine MGL (purified from E. coli), and murine HSL (overexpressed in COS-7 lysates) activity. (D) Effect of Atglistatin on purified bovine LPL (Sigma) and pancreatic lipase (from porcine pancreas, Sigma). Data are presented as mean +/- S.D. of triplicate determinations and are representative for at least three independent experiments (p < 0.05 **, p < 0.01; ***, p < 0.001). • Figure 3 Inhibition of lipolysis in 3T3-L1 adipocytes and WAT organ cultures. (A,B) Differentiated 3T3 cells were preincubated with the indicated concentrations of Atglistatin. Thereafter, the medium was replaced by DMEM containing 2% BSA (fatty acid free), 10 µM forskolin, in the presence or absence of inhibitors. The release of FA (A) and glycerol (B) in the media was determined using commercial kits. Basal FA and glycerol release (not shown) was barely detectable under the applied conditions. Data are presented as mean +/- SD and are representative for 2 independent experiments. (C-F) Effect of Atglistatin on WAT basal (C, D) and forskolin-stimulated (E, F) lipolysis. Adipose tissue pieces (∼15 mg, n=5 for each concentration) of wild-type mice were cultured for 8 h in DMEM containing 2 % FA-free BSA and the indicated concentrations of Atglistatin. Subsequently, the medium was replaced by identical fresh medium and samples were collected after incubation for another hour in the presence or in the absence of 10 µM forskolin. Atglistatin was solubilized in DMSO and DMSO alone was used as negative control. Data are presented as mean +/- S.D. (*, p < 0.05 **, p < 0.01; ***, p < 0.001). • Figure 4 Inhibition of lipolysis in vivo. (A,B) Time dependent effect of Atglistatin on plasma free fatty acids (FFA) and glycerol levels of mice. C57BI6 mice were fasted overnight (ON) and received an oral gavage containing 100 µmol/kg Atglistatin dissolved in olive oil, or olive oil as control. At the indicated timepoints blood was taken retroorbitally and plasma parameters were measured using commercial kits. (C,D) Dose dependent effect of Atglistatin on plasma FFA and glycerol levels of mice. C57BI6 mice were fasted ON and received an oral gavage containing 0, 50, 100, or 200 µmol/kg Atglistatin dissolved in olive oil, or olive oil as control. 8 h after gavage blood was taken retroorbitally and plasma parameters were measured using commercial kits. […]

[2] = plasma, 200 µmol/kg oral gavage, after 8 h, mean ± S.D., n = 7
[3] = up to, 50, 100 or 200 µmol/kg oral gavage, 8 h after gavage

In the case of `CN(C)C(=O)Nc1cccc(-c2ccc(N(C)C)cc2)c1` [Atglistatin, atglistatin], the “effect on HSL activity” value (murine HSL) was “only minor effects”, the “plasma levels for glycerol, time course” value ([1]; 100 µmol/kg oral gavage in olive oil, between 4 h and 8 h after gavage) was “time dependent decrease” and the “plasma levels for FA, time course” value ([1]; 100 µmol/kg oral gavage in olive oil, between 4 h and 12 h after gavage) was “time dependent decrease”. For the same compound, the FFA [1, 2] was 0.53 ± 0.05*** mmol/L, the Triglycerides [1, 2] was 0.33 ± 0.14** mmol/L and the “dose-dependent decrease in plasma FA levels” value [1, 3] was “up to 50%”. The “dose-dependent decrease in plasma glycerol levels” value [1, 3] was ≤ 70%.
